In PMC11859928, “Design, Synthesis, and Antiproliferative Activity of Novel Indole/1,2,4-Triazole Hybrids as Tubulin Polymerization Inhibitors” (Pharmaceuticals, 2025):

How the values were obtained:
Assay type in all cases: cell-based, human
[1] = test system: MOLT-4; experiment: NCI five-dose assay; conditions: MOLT-4, Leukemia; for GI50: read-out: GI50 Conc. per Cell Lines
[2] = test system: SR; experiment: NCI five-dose assay; conditions: Leukemia; for CC50: 48 h, read-out: LC50 (the source's name)
[3] = test system: A549/ATCC; experiment: NCI five-dose assay; conditions: Non-small cell lung cancer; for CC50 / GI50: Homo sapiens; for CC50: 48 h, read-out: LC50 (the source's name); for GI50: read-out: GI50 Conc. per Cell Lines
[4] = test system: HOP-92; experiment: NCI five-dose assay; conditions: HOP-92, Non-small cell lung cancer; for CC50 / GI50: Homo sapiens; for CC50: 48 h, read-out: LC50 (the source's name); for GI50: read-out: GI50 Conc. per Cell Lines
[5] = test system: COLO205; experiment: NCI five-dose assay; conditions: COLO205, Colon cancer; for CC50 / GI50: Homo sapiens, COLO 205; for CC50: 48 h, read-out: LC50 (the source's name); for GI50: read-out: GI50 Conc. per Cell Lines
[6] = test system: HCC-2998; experiment: NCI five-dose assay; conditions: HCC-2998, Colon cancer; for CC50 / GI50: Homo sapiens; for CC50: 48 h, read-out: LC50 (the source's name); for GI50: read-out: GI50 Conc. per Cell Lines
[7] = test system: KM12; experiment: NCI five-dose assay; conditions: KM12, Colon cancer; for CC50 / GI50: Homo sapiens; for CC50: 48 h, read-out: LC50 (the source's name); for GI50: read-out: GI50 Conc. per Cell Lines
[8] = test system: SNB-19; experiment: NCI five-dose assay; conditions: SNB-19, CNS cancer; for CC50 / GI50: Homo sapiens; for CC50: 48 h, read-out: LC50 (the source's name); for GI50: read-out: GI50 Conc. per Cell Lines
[9] = test system: U251; experiment: NCI five-dose assay; conditions: U251, CNS cancer; for CC50 / GI50: Homo sapiens, U-251; for CC50: 48 h, read-out: LC50 (the source's name); for GI50: read-out: GI50 Conc. per Cell Lines
[10] = test system: MALME-3M; experiment: NCI five-dose assay; conditions: Melanoma; for GI50: read-out: GI50 Conc. per Cell Lines
[11] = test system: SK-MEL-28; experiment: NCI five-dose assay; conditions: SK-MEL-28, Melanoma; for CC50 / GI50: Homo sapiens; for CC50: 48 h, read-out: LC50 (the source's name); for GI50: read-out: GI50 Conc. per Cell Lines
[12] = test system: SK-MEL-5; experiment: NCI five-dose assay; conditions: SK-MEL-5, Melanoma; for CC50 / GI50: Homo sapiens; for CC50: 48 h, read-out: LC50 (the source's name); for GI50: read-out: GI50 Conc. per Cell Lines
[13] = test system: UACC-257; experiment: NCI five-dose assay; conditions: UACC-257, Melanoma; for CC50 / GI50: Homo sapiens; for CC50: 48 h, read-out: LC50 (the source's name); for GI50: read-out: GI50 Conc. per Cell Lines
[14] = test system: UACC-62; experiment: NCI five-dose assay; conditions: UACC-62, Melanoma; for CC50 / GI50: Homo sapiens; for CC50: 48 h, read-out: LC50 (the source's name); for GI50: read-out: GI50 Conc. per Cell Lines
[15] = test system: IGROV1; experiment: NCI five-dose assay; conditions: IGROV1, Ovarian cancer; for CC50 / GI50: Homo sapiens, IGROV-1; for CC50: 48 h, read-out: LC50 (the source's name); for GI50: read-out: GI50 Conc. per Cell Lines
[16] = test system: OVCAR-3; experiment: NCI five-dose assay; conditions: OVCAR-3, Ovarian cancer; for LC50 / GI50: Homo sapiens; for LC50: 48 h; for GI50: read-out: GI50 Conc. per Cell Lines
[17] = test system: OVCAR-8; experiment: NCI five-dose assay; conditions: OVCAR-8, Ovarian cancer; for GI50: read-out: GI50 Conc. per Cell Lines
[18] = test system: ACHN; experiment: NCI five-dose assay; conditions: Renal cancer; for LC50 / GI50: Homo sapiens; for LC50: 48 h; for GI50: read-out: GI50 Conc. per Cell Lines
[19] = test system: RXF393; experiment: NCI five-dose assay; conditions: RXF393, Renal cancer; for LC50 (concentration killing 50% of cells) / GI50: Homo sapiens, RXF 393; for LC50 (concentration killing 50% of cells): 48 h; for GI50: read-out: GI50 Conc. per Cell Lines
[20] = test system: SN12C; experiment: NCI five-dose assay; conditions: Renal cancer; for CC50 / GI50: Homo sapiens; for CC50: 48 h, read-out: LC50 (the source's name); for GI50: read-out: GI50 Conc. per Cell Lines
[21] = test system: PC-3; experiment: NCI five-dose assay; conditions: PC-3, Prostate cancer; for GI50: read-out: GI50 Conc. per Cell Lines
[22] = test system: MCF7; experiment: NCI five-dose assay; conditions: MCF7, Breast cancer; for LC50 / GI50: Homo sapiens; for LC50: 48 h; for GI50: read-out: GI50 Conc. per Cell Lines
[23] = test system: HS 578T; experiment: NCI five-dose assay; conditions: Breast cancer; for LC50 / GI50: Homo sapiens; for LC50: 48 h; for GI50: read-out: GI50 Conc. per Cell Lines
[24] = test system: MDA-MB-468; experiment: NCI five-dose assay; conditions: MDA-MB-468, Breast cancer; for LC50 / GI50: Homo sapiens; for LC50: 48 h; for GI50: read-out: GI50 Conc. per Cell Lines
[25] = test system: CNS cancer subpanel; experiment: NCI five-dose assay, subpanel mean; conditions: for GI50 Selectivity Ratio (MID a/MID b): CNS cancer subpanel; for GI50: Homo sapiens, average sensitivity of all cell lines of the CNS cancer subpanel, read-out: GI50 Subpanel MID b
[26] = test system: Melanoma subpanel; experiment: NCI five-dose assay, subpanel mean; conditions: for GI50: Homo sapiens, average sensitivity of all cell lines of the Melanoma subpanel, read-out: GI50 Subpanel MID b; for GI50 Selectivity Ratio (MID a/MID b): Melanoma subpanel
[27] = test system: Ovarian cancer subpanel; experiment: NCI five-dose assay, subpanel mean; conditions: for GI50: Homo sapiens, average sensitivity of all cell lines of the Ovarian cancer subpanel, read-out: GI50 Subpanel MID b; for GI50 Selectivity Ratio (MID a/MID b): Ovarian cancer subpanel
[28] = Homo sapiens, 48 h, read-out: LC50 (the source's name)

## Cc1ccc(/C(CSc2nnc(-c3c[nH]c4ccccc34)n2-c2ccccc2)=N/O)cc1 [Compound 7h, (Z)-2-((5-(1H-Indol-3-yl)-4-phenyl-4H-1,2,4-triazol-3-yl)thio)-1-(p-tolyl)ethanone Oxime]
[1]; Homo sapiens
  GI50: 2.04 µM
[1]
  TGI Conc. per Cell Lines: 4.23 µM
[2]; Homo sapiens
  CC50: > 100 µM
[2]
  TGI Conc. per Cell Lines: ˃100 µM
[3]
  CC50: > 100 µM
  GI50: 3.55 µM
  TGI Conc. per Cell Lines: 69.70 µM
[4]
  TGI Conc. per Cell Lines: 37.40 µM
  CC50: > 100 µM
  GI50: 11.9 µM
[5]
  TGI Conc. per Cell Lines: 37.40 µM
  CC50: > 100 µM
  GI50: 3.77 µM
[6]
  TGI Conc. per Cell Lines: 3.93 µM
  CC50: 7.39 µM
  GI50: 2.09 µM
[7]
  CC50: > 100 µM
  GI50: 8.64 µM
  TGI Conc. per Cell Lines: >100 µM
[8]
  CC50: 8.46 µM
  GI50: 1.87 µM
  TGI Conc. per Cell Lines: 3.97 µM
[9]
  CC50: > 100 µM
  GI50: 8.22 µM
  TGI Conc. per Cell Lines: >100 µM
[10]; [28]
  CC50: 59.1 µM
[10]; Homo sapiens
  GI50: 2.26 µM
[10]
  TGI Conc. per Cell Lines: 5.57 µM
[11]
  CC50: > 100 µM
  GI50: 5.67 µM
  TGI Conc. per Cell Lines: 38.7 µM
[12]
  CC50: > 100 µM
  GI50: 4.76 µM
  TGI Conc. per Cell Lines: 48.1 µM
[13]
  CC50: > 100 µM
  GI50: 2.57 µM
[14]
  CC50: 6.31 µM
  GI50: 1.69 µM
  TGI Conc. per Cell Lines: 3.26 µM
[15]
  CC50: 9.07 µM
  GI50: 2.09 µM
  TGI Conc. per Cell Lines: 4.35 µM
[16]
  LC50: > 100 µM
  GI50: 4.26 µM
[17]; Homo sapiens
  GI50: 2.19 µM
[17]
  TGI Conc. per Cell Lines: 4.89 µM
[18]
  LC50: 6.26 µM
  GI50: 1.79 µM
  TGI Conc. per Cell Lines: 3.35 µM
[19]
  LC50 (concentration killing 50% of cells): 7.65 µM
  GI50: 1.85 µM
  TGI Conc. per Cell Lines: 3.76 µM
[20]
  CC50: 36.7 µM
  GI50: 2.33 µM
  TGI Conc. per Cell Lines: 6.80 µM
[21]; Homo sapiens
  GI50: 1.77 µM
[21]
  TGI Conc. per Cell Lines: 3.74 µM
[22]
  LC50: > 100 µM
  GI50: 2.42 µM
  TGI Conc. per Cell Lines: 7.01 µM
[23]
  TGI Conc. per Cell Lines: 4.82 µM
  LC50: > 100 µM
  GI50: 2.07 µM
[24]
  LC50: 5.64 µM
  GI50: 1.5 µM
  TGI Conc. per Cell Lines: 2.91 µM
[25]
  GI50 Selectivity Ratio (MID a/MID b): 1.04
  GI50: 2.86 µM
[26]
  GI50: 2.78 µM
  GI50 Selectivity Ratio (MID a/MID b): 1.08
[27]
  GI50: 2.24 µM
  GI50 Selectivity Ratio (MID a/MID b): 1.34

## Cc1ccc(C(=O)CSc2nnc(-c3c[nH]c4ccccc34)n2-c2ccccc2)cc1 [Compound 6h, 2-((5-(1H-Indol-3-yl)-4-phenyl-4H-1,2,4-triazol-3-yl)thio)-1-(p-tolyl)ethenone]
[1]; [28]
  CC50: > 100 µM
[1]; Homo sapiens
  GI50: 21.8 µM
[1]
  TGI Conc. per Cell Lines: ˃100 µM
[2]; Homo sapiens
  CC50: > 100 µM
[2]; Homo sapiens, read-out: GI50 Conc. per Cell Lines
  GI50: 42 µM
[2]
  TGI Conc. per Cell Lines: ˃100 µM
[3]
  CC50: > 100 µM
  GI50: 13.9 µM
  TGI Conc. per Cell Lines: 48.50 µM
[4]
  TGI Conc. per Cell Lines: 34.70 µM
  CC50: 82.1 µM
  GI50: 14.7 µM
[5]
  TGI Conc. per Cell Lines: >100 µM
  CC50: > 100 µM
  GI50: 34.4 µM
[6]
  TGI Conc. per Cell Lines: 51.70 µM
  CC50: > 100 µM
  GI50: 20 µM
[7]
  CC50: > 100 µM
  GI50: 36.1 µM
  TGI Conc. per Cell Lines: >100 µM
[8]
  CC50: 75.3 µM
  GI50: 15.8 µM
  TGI Conc. per Cell Lines: 34.50 µM
[9]
  CC50: > 100 µM
  GI50: 23.6 µM
  TGI Conc. per Cell Lines: 65.60 µM
[10]; Homo sapiens
  GI50: 16.2 µM
[10]
  TGI Conc. per Cell Lines: 36.20 µM
[11]
  CC50: > 100 µM
  GI50: 19.6 µM
  TGI Conc. per Cell Lines: 52.10 µM
[12]
  CC50: 92.4 µM
  GI50: 16.5 µM
  TGI Conc. per Cell Lines: 39.10 µM
[13]
  CC50: > 100 µM
  GI50: 28.9 µM
  TGI Conc. per Cell Lines: >100 µM
[14]
  CC50: 95.1 µM
  GI50: 15.3 µM
  TGI Conc. per Cell Lines: 38.10 µM
[15]
  CC50: 61 µM
  GI50: 16.1 µM
  TGI Conc. per Cell Lines: 31.30 µM
[16]
  LC50: > 100 µM
  GI50: 18 µM
  TGI Conc. per Cell Lines: 43.20 µM
[17]; [28]
  CC50: > 100 µM
[17]; Homo sapiens
  GI50: 24.5 µM
[17]
  TGI Conc. per Cell Lines: ˃100 µM
[18]
  LC50: 62.3 µM
  GI50: 13.7 µM
  TGI Conc. per Cell Lines: 29.20 µM
[19]
  LC50 (concentration killing 50% of cells): 61.5 µM
  GI50: 13.6 µM
  TGI Conc. per Cell Lines: 28.90 µM
[20]
  CC50: > 100 µM
  GI50: 19.4 µM
  TGI Conc. per Cell Lines: 48.90 µM
[21]; [28]
  CC50: > 100 µM
[21]; Homo sapiens
  GI50: 12.4 µM
[21]
  TGI Conc. per Cell Lines: 37.80 µM
[22]
  LC50: 98.1 µM
  GI50: 15.7 µM
  TGI Conc. per Cell Lines: 39.20 µM
[23]
  TGI Conc. per Cell Lines: 56.30 µM
  LC50: > 100 µM
  GI50: 14.1 µM
[24]
  LC50: 81.3 µM
  GI50: 12.8 µM
[25]
  GI50 Selectivity Ratio (MID a/MID b): 1.11
  GI50: 17.4 µM
[26]
  GI50: 21.8 µM
  GI50 Selectivity Ratio (MID a/MID b): 0.88
[27]
  GI50: 17.4 µM
  GI50 Selectivity Ratio (MID a/MID b): 1.10
